Assay results as given in US12685315B2, “Herbicidal combination” (UPL do Brasil Industria e Comercio de Insumos Agropecuarios …, priority 2019, dated 2026).

Experiments:
Digitaria insularis = test: Field trial of triple mixes of amicarbazone, post-emergence weed control; assay type: in vivo; details: dose g ai/ha: Amicarbazone 75, S-metolachlor 300, Atrazine 250, mix 75 + 300 + 250
Method: (§1) Field trials were done to evaluate the efficacy and synergism of the triple mixes of amicarbazone with other herbicides for the control of weeds in pre and post-emergence application.
(§2) The composition of the present invention was applied. This test was performed for species of weeds: Grasses namely BRADC=Brachiaria decumbens, CCHEC=Cenchrus echinatus, ELEIN=Eleusine indica, TRCIN=Digitaria insularis and Broadleaves namely IAQGR=Ipomoea grandifolia, EPHHL=Euphorbia heterophylla, COMBE=Commelina benghalensis. Data were collected at various period after application of the composition to the soil and calculated.

yellow nutsedge = test: Field trial, post emergence, efficacy on yellow nutsedge (Blacksburg, VA); assay type: in vivo, Cyperus esculentus; details: 2-way mixes 0.5X, 3-way mix 0.33X; for Yellow nut sedge at 29 DAT (Percentage weed cover): dosage: singles 1X; for Yellow nut sedge at 29 DAT (Percentage Control): post emergence, dosage: singles 1 X
Method: A field trial was conducted to evaluate effectiveness of the combinations of three active ingredients according to the invention when used post emergence, at different rates, compared to industry standards—stand alone and 2 way mixture molecules for efficacy of yellow nutsedge. The active ingredient combination used in the trial was bentazon+halosulfuron+sulfentrazone. The trial was conducted in Blacksburg, VA and was initiated on June 6 under given protocol. The plots were in fallow area primarily covered with yellow nutsedge and tall fescue and were sprayed at 4 week intervals. (2 applications total). The application dosages of the herbicides, when used in isolation and when used in the combinations were as follows: […]

[1] = tested on: Brachiaria decumbens (BRADC); test: Field trial of triple mixes of amicarbazone, pre and post-emergence weed control; assay type: in vivo
Method: as §1, §2

[2] = tested on: Cenchrus echinatus (CCHEC); test: as above; assay type: in vivo
Method: as §1, §2

Eleusine indica = test: as above; assay type: in vivo; details: Table 8, dose g ai/ha: Amicarbazone 250, Sulfentrazone 150, Diuron 250, mix 250 + 150 + 250
Method: as §1, §2

Euphorbia heterophylla = test: Field trial of triple mixes of amicarbazone, pre-emergence weed control; assay type: in vivo; details: dose g ai/ha: Amicarbazone 250, Sulfentrazone 150, Diuron 250, mix 250 + 150 + 250
Method: as §1, §2

[3] = tested on: Ipomoea grandifolia (IAQGR); test: as above; assay type: in vivo
Method: as §1, §2

[4] = Table 5, Post-Emergence, 21 DAA, dose g ai/ha: Amicarbazone 250, Clomazone 250, Diuron 250, mix 250 + 250 + 250
[5] = Table 5, Post-Emergence, 28 DAA, dose g ai/ha: Amicarbazone 250, Clomazone 250, Diuron 250, mix 250 + 250 + 250
[6] = Table 5, Post-Emergence, 35 DAA, dose g ai/ha: Amicarbazone 250, Clomazone 250, Diuron 250, mix 250 + 250 + 250
[7] = Table 5, Pre-Emergence, 21 DAA, dose g ai/ha: Amicarbazone 250, Clomazone 250, Diuron 250, mix 250 + 250 + 250
[8] = Table 5, Pre-Emergence, 28 DAA, dose g ai/ha: Amicarbazone 250, Clomazone 250, Diuron 250, mix 250 + 250 + 250
[9] = Table 5, Pre-Emergence, 35 DAA, dose g ai/ha: Amicarbazone 250, Clomazone 250, Diuron 250, mix 250 + 250 + 250
[10] = Table 6, Post-Emergence, 21 DAA, dose g ai/ha: Amicarbazone 250, Sulfentrazone 150, Diuron 250, mix 250 + 150 + 250
[11] = Table 6, Post-Emergence, 28 DAA, dose g ai/ha: Amicarbazone 250, Sulfentrazone 150, Diuron 250, mix 250 + 150 + 250
[12] = Table 6, Post-Emergence, 35 DAA, dose g ai/ha: Amicarbazone 250, Sulfentrazone 150, Diuron 250, mix 250 + 150 + 250
[13] = Table 6, Pre-Emergence, 21 DAA, dose g ai/ha: Amicarbazone 250, Sulfentrazone 150, Diuron 250, mix 250 + 150 + 250
[14] = Table 6, Pre-Emergence, 28 DAA, dose g ai/ha: Amicarbazone 250, Sulfentrazone 150, Diuron 250, mix 250 + 150 + 250
[15] = Table 6, Pre-Emergence, 35 DAA, dose g ai/ha: Amicarbazone 250, Sulfentrazone 150, Diuron 250, mix 250 + 150 + 250
[16] = Table 4, 7 DAA, dose g ai/ha: Amicarbazone 250, Clomazone 250, Diuron 250, mix 250 + 250 + 250
[17] = Table 4, 14 DAA, dose g ai/ha: Amicarbazone 250, Clomazone 250, Diuron 250, mix 250 + 250 + 250
[18] = Table 4, 28 DAA, dose g ai/ha: Amicarbazone 250, Clomazone 250, Diuron 250, mix 250 + 250 + 250
[19] = Table 1, Post-Emergence, 7 DAA, dose g ai/ha: Amicarbazone 75, Isoxaflutole 15, Atrazine 250, mix 75 + 15 + 250
[20] = Table 1, Post-Emergence, 21 DAA, dose g ai/ha: Amicarbazone 75, Isoxaflutole 15, Atrazine 250, mix 75 + 15 + 250
[21] = Table 1, Post-Emergence, 28 DAA, dose g ai/ha: Amicarbazone 75, Isoxaflutole 15, Atrazine 250, mix 75 + 15 + 250
[22] = Table 1, Pre-Emergence, 7 DAA, dose g ai/ha: Amicarbazone 75, Isoxaflutole 15, Atrazine 250, mix 75 + 15 + 250
[23] = Table 1, Pre-Emergence, 21 DAA, dose g ai/ha: Amicarbazone 75, Isoxaflutole 15, Atrazine 250, mix 75 + 15 + 250
[24] = Table 1, Pre-Emergence, 28 DAA, dose g ai/ha: Amicarbazone 75, Isoxaflutole 15, Atrazine 250, mix 75 + 15 + 250
[25] = Table 2, Post-Emergence, 7 DAA, dose g ai/ha: Amicarbazone 75, Isoxaflutole 15, Atrazine 250, mix 75 + 15 + 250
[26] = Table 2, Post-Emergence, 28 DAA, dose g ai/ha: Amicarbazone 75, Isoxaflutole 15, Atrazine 250, mix 75 + 15 + 250
[27] = Table 2, Post-Emergence, 35 DAA, dose g ai/ha: Amicarbazone 75, Isoxaflutole 15, Atrazine 250, mix 75 + 15 + 250
[28] = Table 3, 14 DAA, dose g ai/ha: Amicarbazone 75, Isoxaflutole 15, Atrazine 250, mix 75 + 15 + 250
[29] = Table 3, 21 DAA, dose g ai/ha: Amicarbazone 75, Isoxaflutole 15, Atrazine 250, mix 75 + 15 + 250
[30] = Table 3, 28 DAA, dose g ai/ha: Amicarbazone 75, Isoxaflutole 15, Atrazine 250, mix 75 + 15 + 250

With `CCc1cccc(C)c1N(C(=O)CCl)[C@@H](C)COC` [S-metolachlor] the “% Control” value (Digitaria insularis; Table 9, 21 DAA) was 0.0%, the “% Control” value (Digitaria insularis; Table 9, 28 DAA) was 0.0% and the “% Control” value (Digitaria insularis; Table 9, 35 DAA) was 0.0%.
`CC(C)N1C(=O)c2ccccc2NS1(=O)=O` [Bentazone] was tested, and the “Yellow nut sedge at 29 DAT (Percentage weed cover)” value (yellow nutsedge; 05/07, untreated 59) was 10%, the “Yellow nut sedge at 29 DAT (Percentage Control)” value (yellow nutsedge; 05/07) was 76% and the “Yellow nut sedge at 29 DAT (Percentage weed cover)” value (yellow nutsedge; 13/06, untreated 50) was 40%. The “Yellow nut sedge at 29 DAT (Percentage Control)” value (yellow nutsedge; 13/06) was 65%, the “Yellow nut sedge at 29 DAT (Percentage weed cover)” value (yellow nutsedge; 20/6, untreated 49) was 8% and the “Yellow nut sedge at 29 DAT (Percentage Control)” value (yellow nutsedge; 20/6) was 75%.
`CN(C)C(=O)Nc1ccc(Cl)c(Cl)c1` [Diuron] was tested, and the “% Control” value [1, 4] was 81.3%, the “% Control” value [1, 5] was 75.0% and the “% Control” value [1, 6] was 76.3%. For the same compound, the “% Control” value [1, 7] was 0.0%, the “% Control” value [1, 8] was 0.0% and the “% Control” value [1, 9] was 0.0%. For the same compound, the “% Control” value [2, 10] was 38.8%, the “% Control” value [2, 11] was 35.0% and the “% Control” value [2, 12] was 28.8%. The “% Control” value [2, 13] was 0.0%, the “% Control” value [2, 14] was 0.0% and the “% Control” value [2, 15] was 0.0%. For the same compound, the “% Control” value (Eleusine indica; Post-Emergence, 14 DAA) was 53.8%, the “% Control” value (Eleusine indica; Post-Emergence, 21 DAA) was 35.0% and the “% Control” value (Eleusine indica; Post-Emergence, 28 DAA) was 30.0%. The “% Control” value (Eleusine indica; Pre-Emergence, 14 DAA) was 0.0%, the “% Control” value (Eleusine indica; Pre-Emergence, 21 DAA) was 0.0% and the “% Control” value (Eleusine indica; Pre-Emergence, 28 DAA) was 0.0%. For the same compound, the “% Control” value (Euphorbia heterophylla; Table 7, 7 DAA) was 0.0%, the “% Control” value (Euphorbia heterophylla; Table 7, 14 DAA) was 0.0% and the “% Control” value (Euphorbia heterophylla; Table 7, 21 DAA) was 0.0%. For the same compound, the “% Control” value [3, 16] was 10.0%, the “% Control” value [3, 17] was 0.0% and the “% Control” value [3, 18] was 0.0%.
For `CCNc1nc(Cl)nc(NC(C)C)n1` [Atrazine], the “% Control” value [1, 19] was 37.5%, the “% Control” value [1, 20] was 21.3% and the “% Control” value [1, 21] was 23.8%. The “% Control” value [1, 22] was 0.0%, the “% Control” value [1, 23] was 0.0% and the “% Control” value [1, 24] was 0.0%. For the same compound, the “% Control” value [2, 25] was 47.5%, the “% Control” value [2, 26] was 26.3% and the “% Control” value [2, 27] was 23.8%. The “% Control” value [3, 28] was 0.0%, the “% Control” value [3, 29] was 0.0% and the “% Control” value [3, 30] was 0.0%. For the same compound, the “% Control” value (Digitaria insularis; Table 9, 21 DAA) was 21.3%, the “% Control” value (Digitaria insularis; Table 9, 28 DAA) was 13.8% and the “% Control” value (Digitaria insularis; Table 9, 35 DAA) was 7.5%.
`Cc1nn(-c2cc(NS(C)(=O)=O)c(Cl)cc2Cl)c(=O)n1C(F)F` [Sulfentrazone] was tested, and the “Yellow nut sedge at 29 DAT (Percentage weed cover)” value (yellow nutsedge; 05/07, untreated 59) was 9%, the “Yellow nut sedge at 29 DAT (Percentage Control)” value (yellow nutsedge; 05/07) was 75% and the “Yellow nut sedge at 29 DAT (Percentage weed cover)” value (yellow nutsedge; 13/06, untreated 50) was 44%. For the same compound, the “Yellow nut sedge at 29 DAT (Percentage Control)” value (yellow nutsedge; 13/06) was 58%, the “Yellow nut sedge at 29 DAT (Percentage weed cover)” value (yellow nutsedge; 20/6, untreated 49) was 11% and the “Yellow nut sedge at 29 DAT (Percentage Control)” value (yellow nutsedge; 20/6) was 73%. For the same compound, the “% Control” value [2, 10] was 86.3%, the “% Control” value [2, 11] was 83.8% and the “% Control” value [2, 12] was 82.5%. For the same compound, the “% Control” value [2, 13] was 17.5%, the “% Control” value [2, 14] was 13.8% and the “% Control” value [2, 15] was 9.5%. The “% Control” value (Eleusine indica; Post-Emergence, 14 DAA) was 70.0%, the “% Control” value (Eleusine indica; Post-Emergence, 21 DAA) was 63.8% and the “% Control” value (Eleusine indica; Post-Emergence, 28 DAA) was 55.0%. For the same compound, the “% Control” value (Eleusine indica; Pre-Emergence, 14 DAA) was 93.3%, the “% Control” value (Eleusine indica; Pre-Emergence, 21 DAA) was 96.5% and the “% Control” value (Eleusine indica; Pre-Emergence, 28 DAA) was 92.0%. For the same compound, the “% Control” value (Euphorbia heterophylla; Table 7, 7 DAA) was 0.0%, the “% Control” value (Euphorbia heterophylla; Table 7, 14 DAA) was 10.0% and the “% Control” value (Euphorbia heterophylla; Table 7, 21 DAA) was 17.5%.
For `COc1cc(OC)nc(NC(=O)NS(=O)(=O)c2c(C(=O)O)c(Cl)nn2C)n1` [Halosulfuron], the “Yellow nut sedge at 29 DAT (Percentage weed cover)” value (yellow nutsedge; 05/07, untreated 59) was 8%, the “Yellow nut sedge at 29 DAT (Percentage Control)” value (yellow nutsedge; 05/07) was 81% and the “Yellow nut sedge at 29 DAT (Percentage weed cover)” value (yellow nutsedge; 13/06, untreated 50) was 50%. For the same compound, the “Yellow nut sedge at 29 DAT (Percentage Control)” value (yellow nutsedge; 13/06) was 36%, the “Yellow nut sedge at 29 DAT (Percentage weed cover)” value (yellow nutsedge; 20/6, untreated 49) was 16% and the “Yellow nut sedge at 29 DAT (Percentage Control)” value (yellow nutsedge; 20/6) was 60%.
In the case of `CS(=O)(=O)c1cc(C(F)(F)F)ccc1C(=O)c1cnoc1C1CC1` [Isoxaflutole], the “% Control” value [1, 19] is reported as 66.3%, the “% Control” value [1, 20] is reported as 65.0% and the “% Control” value [1, 21] is reported as 68.8%. The “% Control” value [1, 22] was 86.3%, the “% Control” value [1, 23] was 53.8% and the “% Control” value [1, 24] was 50.0%. For the same compound, the “% Control” value [2, 25] was 68.8%, the “% Control” value [2, 26] was 91.3% and the “% Control” value [2, 27] was 93.3%. The “% Control” value [3, 28] was 15.0%, the “% Control” value [3, 29] was 0.0% and the “% Control” value [3, 30] was 0.0%.
For `CC1(C)CON(Cc2ccccc2Cl)C1=O` [Clomazone], the “% Control” value [1, 4] was 71.3%, the “% Control” value [1, 5] was 63.8% and the “% Control” value [1, 6] was 61.3%. The “% Control” value [1, 7] was 89.5%, the “% Control” value [1, 8] was 86.5% and the “% Control” value [1, 9] was 86.3%. The “% Control” value [3, 16] was 57.5%, the “% Control” value [3, 17] was 41.3% and the “% Control” value [3, 18] was 39.5%.
